{"source": "paper PMC6234764", "about": "“First Insights Into Within Host Translocation of the Bacillus cereus Toxin Cereulide Using a Porcine Model” (Frontiers in Microbiology, 2018)", "key": {"[1]": {"experiment": "Excretion of cereulide in feces and urine, SIDA-MS", "format": "in vivo, pig", "method": "(§1) A total of four experiments, each including four treated animals and one control pig, was performed to investigate the action of cereulide on piglets after oral intake of cereulide. Pigs were either challenged orally with a single dose (acute trials) or with daily over a period of 7 days (chronic trial) (see Table 1). One hour before cereulide toxin administration blood samples were taken by puncturing the anterior Vena cava and piglets were weighed for calculation of the cereulide concentration (t = 0 h). In the intoxication experiment with 150 μg kg^-1 blood samples were taken 68 h before the experiment to reduce the distress for the animals at the start day of the experiments. Blood-chemical, immunological, and histological analyses of selected organs as well as quantification of cereulide in organs, tissues, urine and feces were carried out as detailed below.\n(§2) On body weight calculated amounts of cereulide, dissolved in ethanol, were mixed with milk (UHT milk; 3.5% fat), and fed to four piglets. Control piglets were fed with milk supplemented with similar ethanol concentrations as the experimental piglets. The experiment started after the uptake of the whole milk cereulide mixture. The milk was checked for bacterial contamination prior to the experiment.\n(§3) After oral administration of cereulide, piglets were monitored for unusual behavior and examined physically with special respect on rectal body temperature as well as pulse and respiration rate, every 2–3 h. Blood samples were taken from the Vena cava cranialis. Urine and feces were collected during the whole experiment and stored at -80°C. After the experiment pigs were anaesthetized by intramuscular injection of a bolus of ketamine (10 mg kg^-1) and azaperone (1.3 mg kg^-1). When sedation was deep enough cerebrospinal fluid (liquor) was taken by lumbar puncture. Finally, pigs were euthanized by intracardial injection of T61®. Animals were then necropsied and parts of the following organs, tissues or body fluids were taken for SIDA-MS analysis: liver, lung, heart, kidney, brain, spleen, small and large intestine, lymph nodes, gastric as well as intestinal contents, skeletal muscle, and abdominal and subcutaneous fat. Samples of liver, lung, heart, kidney, brain, spleen, small, and large intestine were collected for histological analysis.\n(§4) Collected blood samples, urine, feces, tissue and organs were freeze dried and stored at -80°C until analysis. Before extraction, liquid nitrogen was added to frozen samples and they were crushed to a powder using a mortar. Ten microgram ^13C6-cereulide (for organs and feces) or 5 μg ^13C6-cereulide (for urine and blood) was added and samples were incubated on a rocking table for 2 h. Samples were solved in ethanol (volume depending on weight 10–40 mL), incubated 14 h, and the supernatants were collected by centrifugation (RT, 8500 g, 10 min). For pre-purification the ethanolic extract was 1:5 diluted with water and applied onto the top of a methanol activated C18-SPE cartridge (6 mL; 1 g; Strata C18-E; Phenomenex, Aschaffenburg, Germany). The cartridge was washed with 6 mL water followed by methanol/water (4 mL; 70/30, v/v) and target compounds were eluted with ethanol (2.5 mL). Finally, samples were membrane filtrated (0.2 μm; PTFE membrane; Phenomenex, Aschaffenburg, Germany) and analyzed by means of LC-MS/MS as described previously ([Bauer et al., 2010]). In brief, LC-MS/MS analysis was performed using an Agilent 1200 HPLC-system connected to the API 4000QTrap LC-MS/MS (Applied Biosystems, Darmstadt, Germany) running in the positive electrospray ionization (ESI^+, +5500 V) mode. Zero grade air served as nebulizer gas (45 psi) and turbo gas (425°C) for solvent drying (55 psi), nitrogen was used as curtain (20 psi) and collision gas (8.7 × 10^-7 psi), respectively. Both quadrapoles were set at unit resolution. […]"}, "[2]": {"experiment": "Cereulide in organs and tissues, SIDA-MS", "format": "in vivo, pig", "settings": "for tissue level at time at 48 h / tissue level at time at 168 h: pig; for tissue level at time at 168 h: 10 ug/kg", "method": "as §1, §2, §3, §4"}, "[3]": {"settings": "daily oral dose 10 μg kg^-1 over 7 days"}, "[4]": {"settings": "daily oral dose 10 μg kg^-1 for 7 days, SIDA-MS"}}, "note": "Read-outs that look alike come from different tables or passages of the source.", "data": [{"smiles": "CC(C)C[C@H]1OC(=O)[C@H](C(C)C)NC(=O)[C@H](C(C)C)OC(=O)[C@@H](C)NC(=O)[C@@H](CC(C)C)OC(=O)[C@H](C(C)C)NC(=O)[C@H](C(C)C)OC(=O)[C@@H](C)NC(=O)[C@@H](CC(C)C)OC(=O)[C@H](C(C)C)NC(=O)[C@H](C(C)C)OC(=O)[C@@H](C)NC1=O", "note": "[cereulide]", "values": [{"measurement": "Cereulide concentration in feces", "setting": "[1]; daily oral dose 10 μg kg^-1, until end of trial on day 7", "value": "0.02 to 0.29", "unit": "μg cereulide g^-1 feces"}, {"measurement": "Detectability of cereulide in urine", "setting": "[1]; [3]", "value": "no cereulide was detectable"}, {"measurement": "Time until cereulide became detectable in fecal samples", "setting": "[1]; [3]", "value": "2 to 3", "unit": "days"}, {"measurement": "Amount of cereulide excreted with the feces", "setting": "[1]; one pig (13 kg), 30 μg kg^-1 (total intake 390 μg), after 12 h", "value": 20.90, "unit": "µg"}, {"measurement": "Amount of cereulide excreted with the feces", "setting": "[1]; one pig (13 kg), 30 μg kg^-1 (total intake 390 μg), after 24 h", "value": 26.80, "unit": "µg"}, {"measurement": "Amount of cereulide excreted with the feces", "setting": "[1]; one pig (13 kg), 30 μg kg^-1 (total intake 390 μg), after 48 h", "value": 1.38, "unit": "µg"}, {"measurement": "Total amount of cereulide excreted with the feces", "setting": "[1]; one pig (13 kg), 30 μg kg^-1 (total intake 390 μg), in 33.6 g feces over 48 h", "value": 49.08, "unit": "µg"}, {"measurement": "Cereulide concentration in fecal samples, maximum", "setting": "[1]; oral challenge, SIDA-MS", "value": "up to 5 μg cereulide g^-1 feces"}, {"measurement": "Overall cereulide excretion in feces, % of total amount", "setting": "[1]; single oral dose 30 μg kg^-1, within first 48 h", "value": "up to 13%"}, {"measurement": "Time of first detection in fecal samples post-toxin exposure", "setting": "[1]; single oral dose 150 μg kg^-1", "value": "3 to 4", "unit": "h"}, {"measurement": "Cereulide concentration in urine, maximum", "setting": "[1]; single oral dose 150 μg kg^-1, SIDA-MS", "value": "up to 2 ng cereulide mL^-1 urine"}, {"measurement": "Overall cereulide excretion in feces, % of total quantity administered", "setting": "[1]; single oral dose 150 μg kg^-1, within first 48 h", "value": "up to 15%"}, {"measurement": "Time of highest toxin amounts excreted with feces", "setting": "[1]; single oral dose 150 μg kg^-1, exception one pig that did not defecate over 20 h", "value": "16 to 24", "unit": "h"}, {"measurement": "Detectability of cereulide in urine", "setting": "[1]; single oral doses 10 μg kg^-1/30 μg kg^-1, SIDA-MS", "value": "not from animals challenged with lower cereulide doses"}, {"measurement": "Cereulide orally administered that is shed with feces", "setting": "[1]; within the first 48 h, acute trials", "value": "10–15%"}, {"measurement": "Average concentration in content of large intestine, acute 150 μg kg^-1 versus chronic 10 μg kg^-1 daily", "setting": "[2]; acute high dose over chronic trial", "value": "about 15 fold"}, {"measurement": "Amounts of cereulide in muscle, chronic trial versus acute high dose", "setting": "[2]; chronic 10 μg kg^-1 daily exceeds acute 150 μg kg^-1", "value": "threefold"}, {"measurement": "Cereulide concentration in content of large intestine, range", "setting": "[2]; [4]", "value": "2.04 to 6.78", "unit": "ng/g"}, {"measurement": "Cereulide concentration in kidney, range", "setting": "[2]; [4]", "value": "0.14 to 0.37", "unit": "ng/g"}, {"measurement": "Cereulide concentration in large intestine, range", "setting": "[2]; [4]", "value": "1.16 to 5.05", "unit": "ng/g"}, {"measurement": "Cereulide concentration in liver, range", "setting": "[2]; [4]", "value": "0.06 to 0.24", "unit": "ng/g"}, {"measurement": "Cereulide concentration in lymph nodes, range", "setting": "[2]; [4]", "value": "0.01 to 0.14", "unit": "ng/g"}, {"measurement": "Cereulide concentration in muscle, range", "setting": "[2]; [4]", "value": "0 to 2.23", "unit": "ng/g"}, {"measurement": "Cereulide concentration in spleen, range", "setting": "[2]; [4]", "value": "0.10 to 0.21", "unit": "ng/g"}, {"measurement": "Cereulide concentration in subcutaneous fat, range", "setting": "[2]; [4]", "value": "0 to 0.08", "unit": "ng/g"}, {"measurement": "Cereulide in large intestine and large intestinal contents, maximum", "setting": "[2]; [3]", "value": "up to 6.8 ng g^-1"}, {"measurement": "Detectability of cereulide in the small intestine", "setting": "[2]; [3]", "value": "not detectable"}, {"measurement": "Passage of the blood-brain-barrier (BBB)", "setting": "[2]; detection of cereulide in brain samples after oral challenge", "value": "can cross the BBB"}, {"measurement": "tissue level at time at 48 h", "setting": "[2]; abdominal fat, 150 ug/kg, single oral dose 150 μg kg^-1, necropsy after 48 h, SIDA-MS, read-out: Cereulide concentration in abdominal fat, average", "value": "7.88 ± 4.17", "unit": "ng/g"}, {"measurement": "tissue level at time at 48 h", "setting": "[2]; brain, 150 ug/kg, single oral dose 150 μg kg^-1, necropsy after 48 h, SIDA-MS, read-out: Cereulide concentration in brain, average", "value": "0.73 ± 0.49", "unit": "ng/g"}, {"measurement": "tissue level at time at 168 h", "setting": "[2]; content of large intestine, daily oral dose 10 μg kg^-1 for 7 days, SIDA-MS, read-out: Cereulide concentration in content of large intestine, average", "value": "4.41 ± 2.37", "unit": "ng/g"}, {"measurement": "tissue level at time at 48 h", "setting": "[2]; content of large intestine, 30 ug/kg, single oral dose 30 μg kg^-1, necropsy after 48 h, SIDA-MS, read-out: Cereulide concentration in content of large intestine, average", "value": "0.07 ± 0.03", "unit": "ng/g"}, {"measurement": "tissue level at time at 48 h", "setting": "[2]; content of large intestine, 150 ug/kg, single oral dose 150 μg kg^-1, necropsy after 48 h, SIDA-MS, read-out: Cereulide concentration in content of large intestine, average", "value": "67.9 ± 50.8", "unit": "ng/g"}, {"measurement": "tissue level at time at 48 h", "setting": "[2]; content of small intestine, 150 ug/kg, single oral dose 150 μg kg^-1, necropsy after 48 h, SIDA-MS, read-out: Cereulide concentration in content of small intestine, average", "value": "0.68 ± 0.53", "unit": "ng/g"}, {"measurement": "tissue level at time at 168 h", "setting": "[2]; kidney, daily oral dose 10 μg kg^-1 for 7 days, SIDA-MS, read-out: Cereulide concentration in kidney, average", "value": "0.25 ± 0.12", "unit": "ng/g"}, {"measurement": "tissue level at time at 48 h", "setting": "[2]; kidney, 150 ug/kg, single oral dose 150 μg kg^-1, necropsy after 48 h, SIDA-MS, read-out: Cereulide concentration in kidney, average", "value": "0.21 ± 0.21", "unit": "ng/g"}]}]}
